# Source: patent US4011322A, “Benzimidazole derivatives and process for the production thereof” (Schering Aktiengesellschaft, priority 1974, dated 1977)
# System: stripped skin of volunteers (vasoconstriction / hyperemia)
# Test: Vasoconstriction test on stripped skin of volunteers (topical ointment)
# Assay type: in vivo, human (volunteers)
# Procedure: The anti-inflammatory effectiveness of the novel benzimidazole derivatives can be determined in the conventional vasoconstriction test, as follows:
# On the backs of volunteers for the experiment, the stratum corneum was removed by the application and tearing off of an adhesive strip, applied 20 times at the same spot, thus producing a pronounced hyperemia. Within the stripped area, respectively 50 mg. of ointment was applied to marked areas having a size of 4 cm^2, this ointment containing respectively 0.1, 0.01 or 0.001%, respectively, of the compound to be tested or of the reference substance in a water-oil base. […]
# To determine the vasoconstriction, which is a representative syndrome of topical anti-inflammatory activity, the color value of the untreated skin and the treated stripped skin is measured and compared with the color value of the normal skin, with the color value of the normal skin being assigned the value 100 and the color value of the untreated stripped skin being assigned the value 0. Minor, medium, and high-grade vasoconstriction are evaluated with values between 0 and 100.
# The results of such tests employing compounds of this invention (Compounds III and IV) and the prior art compounds Clemizole (I) and Flucortolone (II) are shown in Table I below.
# [1] = 0.001% in ointment, observation time 1 hour
# [2] = 0.001% in ointment, observation time 4 hours
# [3] = 0.001% in ointment, observation time 8 hours
# [4] = 0.01% in ointment, observation time 1 hour
# [5] = 0.01% in ointment, observation time 4 hours
# [6] = 0.01% in ointment, observation time 8 hours
# [7] = 0.1% in ointment, observation time 1 hour
# [8] = 0.1% in ointment, observation time 4 hours
# [9] = 0.1% in ointment, observation time 8 hours
Structure (SMILES),"vasoconstriction (color value; normal skin = 100, untreated stripped skin = 0) [1]","vasoconstriction (color value; normal skin = 100, untreated stripped skin = 0) [2]","vasoconstriction (color value; normal skin = 100, untreated stripped skin = 0) [3]","vasoconstriction (color value; normal skin = 100, untreated stripped skin = 0) [4]","vasoconstriction (color value; normal skin = 100, untreated stripped skin = 0) [5]","vasoconstriction (color value; normal skin = 100, untreated stripped skin = 0) [6]","vasoconstriction (color value; normal skin = 100, untreated stripped skin = 0) [7]","vasoconstriction (color value; normal skin = 100, untreated stripped skin = 0) [8]","vasoconstriction (color value; normal skin = 100, untreated stripped skin = 0) [9]"
"CCN1CCN(Cc2nc3ccccc3n2Cc2ccccc2O)CC1 [III, 2-(4-Ethyl-1-piperazinyl)-methyl-1-(2-hydroxybenzyl)-benzimidazole]",15,15,20,35,55,55,45,80,85
"CCN1CCN(Cc2nc3ccccc3n2Cc2ccc(Cl)cc2)CC1 [IV, 2-(4-Ethyl-1-piperazinyl)-methyl-1-(4-chlorobenzyl)-benzimidazole]",25,65,95,30,85,100,,,
"C[C@@H]1C[C@H]2[C@@H]3C[C@H](F)C4=CC(=O)C=C[C@]4(C)[C@H]3[C@@H](O)C[C@]2(C)[C@H]1C(=O)CO [II, 6 α-Fluoro-11β,21-dihydroxy-16α-methyl-1,4-pregnadiene-3,20-dione]",20,50,60,15,65,85,35,75,85
"Clc1ccc(Cn2c(CN3CCCC3)nc3ccccc32)cc1 [I, 1-4'Chlorobenzyl-2-pyrrolidinomethyl-benzimidazole]",,,,18,31,33,18,35,45
